Assay results from patent publication US8785488B2 (Exelixis Patent Company LLC, priority 2009, dated 2014).

Key:
human TGR5 (h-TGR5) = biological target: T1, human TGR5 (h-TGR5) (Homo sapiens, UniProt Q8TDU6); assay: TGR5/CRE-Luciferiase Assay (HEK 293 hTGR5/CRE-Luc cells); type: cell-based; settings: h-TGR5 CRE-Luc EC50, Table 1; read-out: CRE-Luc (EC50)
T1 construct: expressed in transfected cells
T1 sequence (Q8TDU6 1-330): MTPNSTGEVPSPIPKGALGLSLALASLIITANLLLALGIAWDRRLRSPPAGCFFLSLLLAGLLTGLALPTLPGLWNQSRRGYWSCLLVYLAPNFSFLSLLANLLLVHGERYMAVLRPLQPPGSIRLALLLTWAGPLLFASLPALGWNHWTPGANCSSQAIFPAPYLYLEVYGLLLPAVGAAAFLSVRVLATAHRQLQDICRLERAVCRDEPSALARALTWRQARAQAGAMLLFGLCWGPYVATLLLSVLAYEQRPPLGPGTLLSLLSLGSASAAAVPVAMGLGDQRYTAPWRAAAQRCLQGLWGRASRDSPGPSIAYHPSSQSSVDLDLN
In short: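 HEK293 cells stably carrying hTGR5 and a CRE-luciferase reporter were exposed to serially diluted compounds (diluted in DMEM with 5% DMSO) for 6 h. Cells were then lysed in luciferase buffer, luminescence was read, and EC50 values were derived from dose-response curves.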

h-TGR5 = biological target: T2, h-TGR5 (Homo sapiens, UniProt Q8TDU6); assay: TGR5 cAMP Assay using Cisbio cAMP Dynamic2 htrf kit (hTGR5CRE-luc HEK 293 cells); type: cell-based; settings: h-TGR5 cAMP EC50, Table 1; read-out: cAMP (EC50)
T2 construct: expressed in transfected cells
T2 sequence (Q8TDU6 1-330): T1 sequence (Q8TDU6 1-330)
In short: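 […], 4000 hTGR5CRE-luc HEK 293 cells per well, with 0.5 mM IBMX and d2-cAMP, were incubated 30 min at room temperature with compounds in 8-point half-log series, in quadruplicate.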

Row | SMILES | EC50 (human TGR5 (h-TGR5)) [nM] | EC50 (h-TGR5) [nM]
1 | CC(C)(c1ccc(Cl)c(Cl)c1)c1cnc(SCc2ccc(C(=O)NCC(=O)O)cc2F)n1-c1ccc(F)cc1 [N-({4-[({5-[1-(3,4-dichlorophenyl)-1-methylethyl]-1-(4-fluorophenyl)-1H-imidazol-2-yl}thio)methyl]-3-fluorophenyl}carbonyl)glycine] | 100 to 1000 | 100 to 1000
2 | COc1cc(-n2c(C(C)(C)c3ccc(Cl)c(Cl)c3)cnc2SCc2c(F)cc(C(=O)NCCC(=O)O)cc2F)ccc1F [N-({4-[({5-[1-(3,4-dichlorophenyl)-1-methylethyl]-1-[4-fluoro-3-(methyloxy)phenyl]-1H-imidazol-2-yl}thio)methyl]-3,5-difluorophenyl}carbonyl)-beta-alanine] | < 100 | < 100
3 | CC(C)(c1ccc(Cl)c(Cl)c1)c1cnc(CNC2CCN(S(C)(=O)=O)CC2)n1-c1ccc(F)cc1 [N-({5-[1-(3,4-dichlorophenyl)-1-methylethyl]-1-(4-fluorophenyl)-1H-imidazol-2-yl}methyl)-1-(methylsulfonyl)piperidin-4-amine] | 1000 to 10000 | 1000 to 10000
4 | CC(C)(c1ccc(Cl)c(Cl)c1)c1cnc(SCc2ccc(F)c(C(=O)NCC(=O)O)c2)n1-c1ccc(F)cc1 [N-({5-[({5-[1-(3,4-dichlorophenyl)-1-methylethyl]-1-(4-fluorophenyl)-1H-imidazol-2-yl}thio)methyl]-2-fluorophenyl}carbonyl)glycine] | 100 to 1000 | 100 to 1000
5 | CC(C)(c1ccc(Cl)c(Cl)c1)c1cnc(S(=O)(=O)NCc2ccc(F)cc2Cl)n1-c1ccc(F)cc1 [N-[(2-chloro-4-fluorophenyl)methyl]-5-[1-(3,4-dichlorophenyl)-1-methylethyl]-1-(4-fluorophenyl)-1H-imidazole-2-sulfonamide] | < 100 | 100 to 1000
6 | CC(C)(c1ccc(Cl)c(Cl)c1)c1cnc(S(=O)(=O)NCc2c(F)cccc2Cl)n1-c1ccc(F)cc1 [N-[(2-chloro-6-fluorophenyl)methyl]-5-[1-(3,4-dichlorophenyl)-1-methylethyl]-1-(4-fluorophenyl)-1H-imidazole-2-sulfonamide] | 100 to 1000 | 100 to 1000
7 | COc1cc(C(C)(C)c2cnc(NCc3ccc(Cl)cc3F)n2-c2ccc(F)cc2)ccc1Cl [N-[(4-chloro-2-fluorophenyl)methyl]-5-{1-[4-chloro-3-(methyloxy)phenyl]-1-methylethyl}-1-(4-fluorophenyl)-1H-imidazol-2-amine] | 1000 to 10000 | 1000 to 10000
8 | COc1cc(-n2c(C(C)(C)c3ccc(S(N)(=O)=O)c(Cl)c3)cnc2SCc2c(F)cc(C(=O)NCCC(=O)O)cc2F)ccc1F [N-[(4-{[(5-{1-[4-(aminosulfonyl)-3-chlorophenyl]-1-methylethyl}-1-[4-fluoro-3-(methyloxy)phenyl]-1H-imidazol-2-yl)thio]methyl}-3,5-difluorophenyl)carbonyl]-beta-alanine] | < 100 | < 100
9 | COc1cc(-n2c(C(C)(C)c3ccc(S(N)(=O)=O)c(Cl)c3)cnc2SCc2ccc(C(=O)NCCC(=O)O)cc2F)ccc1F [N-[(4-{[(5-{1-[4-(aminosulfonyl)-3-chlorophenyl]-1-methylethyl}-1-[4-fluoro-3-(methyloxy)phenyl]-1H-imidazol-2-yl)thio]methyl}-3-fluorophenyl)carbonyl]-beta-alanine] | < 100 | < 100
10 | COc1cc(C(C)(C)c2cnc(SCc3ccc(S(=O)(=O)NC(=O)N4CCC(O)C4)cc3Cl)n2-c2ccc(F)cc2)ccc1Cl (stereo not drawn) [N-{[3-chloro-4-({[5-{1-[4-chloro-3-(methyloxy)phenyl]-1-methylethyl}-1-(4-fluorophenyl)-1H-imidazol-2-yl]thio}methyl)phenyl]sulfonyl}-3-hydroxypyrrolidine-1-carboxamide] | 1000 to 10000 | < 100
11 | COc1cc(C(C)(C)c2cnc(SCc3ccc(S(=O)(=O)NC(=O)N4CCCC4)cc3Cl)n2-c2ccc(F)cc2)ccc1Cl [N-{[3-chloro-4-({[5-{1-[4-chloro-3-(methyloxy)phenyl]-1-methylethyl}-1-(4-fluorophenyl)-1H-imidazol-2-yl]thio}methyl)phenyl]sulfonyl}pyrrolidine-1-carboxamide] | 100 to 1000 | < 100
12 | COc1cc(C(C)(C)c2cnc(SCc3ccc(C(=O)NCCC(=O)O)cc3F)n2-c2ccc(F)cc2)ccc1Cl [N-{[4-({[5-{1-[4-chloro-3-(methyloxy)phenyl]-1-methylethyl}-1-(4-fluorophenyl)-1H-imidazol-2-yl]thio}methyl)-3-fluorophenyl]carbonyl}-beta-alanine] | < 100 | < 100
13 | COc1ccc(C(C)(C)c2cnc(CN(C)c3c(F)cccc3Cl)n2-c2ccc(F)cc2)cc1OC [N-{[5-{1-[3,4-bis(methyloxy)phenyl]-1-methylethyl}-1-(4-fluorophenyl)-1H-imidazol-2-yl]methyl}-2-chloro-6-fluoro-N-methylaniline] | < 100 | < 100
14 | COc1ccc(C(C)(C)c2cnc(CNc3c(F)cccc3Cl)n2-c2ccc(F)cc2)cc1OC [N-{[5-{1-[3,4-bis(methyloxy)phenyl]-1-methylethyl}-1-(4-fluorophenyl)-1H-imidazol-2-yl]methyl}-2-chloro-6-fluoroaniline] | < 100 | 100 to 1000
15 | CC(C)(c1ccc(Cl)c(Cl)c1)c1cnc(SCc2ccc(F)cc2Cl)n1-c1ccc(F)c(CO)c1 [[5-(2-{[(2-chloro-4-fluorophenyl)methyl]thio}-5-[1-(3,4-dichlorophenyl)-1-methylethyl]-1H-imidazol-1-yl)-2-fluorophenyl]methanol] | 100 to 1000 | 100 to 1000
16 | CC(C)(c1ccc(Cl)c(Cl)c1)c1cnc(SCc2c(F)cc(C(=O)NCS(=O)(=O)O)cc2F)n1-c1ccc(F)c(Cl)c1 [[({4-[({1-(3-chloro-4-fluorophenyl)-5-[1-(3,4-dichlorophenyl)-1-methylethyl]-1H-imidazol-2-yl}thio)methyl]-3,5-difluorophenyl}carbonyl)amino]methanesulfonic acid] | < 100 | < 100
17 | COc1cc(-n2c(C(C)(C)c3ccc(Cl)c(Cl)c3)cnc2SCc2c(F)cc(C(=O)NCS(=O)(=O)O)cc2F)ccc1F [[({4-[({5-[1-(3,4-dichlorophenyl)-1-methylethyl]-1-[4-fluoro-3-(methyloxy)phenyl]-1H-imidazol-2-yl}thio)methyl]-3,5-difIuorophenyl}carbonyl)amino]methanesulfonic acid] | < 100 | < 100
18 | CCOC(=O)NS(=O)(=O)c1ccc(CSc2ncc(C(C)(C)c3ccc(Cl)c(Cl)c3)n2-c2ccc(F)c(OC)c2)c(Cl)c1 [ethyl ({3-chloro-4-[({5-[1-(3,4-dichlorophenyl)-1-methylethyl]-1-[4-fluoro-3-(methyloxy)phenyl]-1H-imidazol-2-yl}thio)methyl]phenyl}sulfonyl)carbamate] | 100 to 1000 | 100 to 1000
19 | CCOC(=O)NS(=O)(=O)c1ccc(CSc2ncc(C(C)(C)c3ccc(S(N)(=O)=O)c(Cl)c3)n2-c2ccc(F)c(OC)c2)c(Cl)c1 [ethyl [(4-{[(5-{1-[4-(aminosulfonyl)-3-chlorophenyl]-1-methylethyl}-1-[4-fluoro-3-(methyloxy)phenyl]-1H-imidazol-2-yl)thio]methyl}-3-chlorophenyl)sulfonyl]carbamate] | < 100 | < 100
20 | CCOC(=O)NS(=O)(=O)c1ccc(CSc2ncc(C(C)(C)c3ccc(OC)c(Cl)c3)n2-c2ccc(F)cc2)c(Cl)c1 [ethyl {[3-chloro-4-({[5-{1-[3-chloro-4-(methyloxy)phenyl]-1-methylethyl}-1-(4-fluorophenyl)-1H-imidazol-2-yl]thio}methyl)phenyl]sulfonyl}carbamate] | < 100 | < 100
21 | CCOC(=O)NS(=O)(=O)c1ccc(CSc2ncc(C(C)(C)c3ccc(Cl)c(OC)c3)n2-c2ccc(F)cc2)c(Cl)c1 [ethyl {[3-chloro-4-({[5-{1-[4-chloro-3-(methyloxy)phenyl]-1-methylethyl}-1-(4-fluorophenyl)-1H-imidazol-2-yl]thio}methyl)phenyl]sulfonyl}carbamate] | < 100 | < 100
22 | CCOC(=O)NS(=O)(=O)c1ccc(CSc2ncc(C(C)(C)c3ccc(S(N)(=O)=O)c(Cl)c3)n2-c2ccc(F)cc2)c(Cl)c1 [ethyl {[4-({[5-{1-[4-(aminosulfonyl)-3-chlorophenyl]-1-methylethyl}-1-(4-fluorophenyl)-1H-imidazol-2-yl]thio}methyl)-3-chlorophenyl]sulfonyl}carbamate] | 100 to 1000 | < 100
23 | CCOC(=O)NS(=O)(=O)c1ccc(CSc2ncc(C(C)(C)c3ccc(Cl)c(OC)c3)n2-c2ccc(F)cc2)cc1F [ethyl {[4-({[5-{1-[4-chloro-3-(methyloxy)phenyl]-1-methylethyl}-1-(4-fluorophenyl)-1H-imidazol-2-yl]thio}methyl)-2-fluorophenyl]sulfonyl}carbamate] | < 100 | < 100
24 | CCOC(=O)NS(=O)(=O)c1ccc(CSc2ncc(C(C)(C)c3ccc(Cl)c(OC)c3)n2-c2ccc(F)cc2)c(F)c1 [ethyl {[4-({[5-{1-[4-chloro-3-(methyloxy)phenyl]-1-methylethyl}-1-(4-fluorophenyl)-1H-imidazol-2-yl]thio}methyl)-3-fluorophenyl]sulfonyl}carbamate] | < 100 | < 100
